Source: ChEMBL document CHEMBL1201862, “PubChem BioAssay data set” (2004)
The source made the active and inactive calls.

Experiments:
Troponin, cardiac muscle = Troponin, cardiac muscle (Homo sapiens, UniProt P19429+P45379+P63316); assay: Fluorescence-based biochemical high throughput dose response assay for activators of the calcium sensitivity of cardiac Regulated Thin Filaments (RTF). [Related pubchem assays (depositor defined):AID493008, AID493018, AID504382, AID504383]; assay type: protein-complex assay
[1] = biological target: T1, Short transient receptor potential channel 4 (Mus musculus, UniProt Q9QUQ5); assay: block of DAMGO-driven TRPC4 calcium entry – cell-based, HEK293 TRPC4/mu-opioid, Fluo-4 calcium, dose response (AID 434942); assay type: functional;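 further: potency of inhibitors blocking the TRPC4 calcium response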
T1 sequence (Q9QUQ5 whole entry): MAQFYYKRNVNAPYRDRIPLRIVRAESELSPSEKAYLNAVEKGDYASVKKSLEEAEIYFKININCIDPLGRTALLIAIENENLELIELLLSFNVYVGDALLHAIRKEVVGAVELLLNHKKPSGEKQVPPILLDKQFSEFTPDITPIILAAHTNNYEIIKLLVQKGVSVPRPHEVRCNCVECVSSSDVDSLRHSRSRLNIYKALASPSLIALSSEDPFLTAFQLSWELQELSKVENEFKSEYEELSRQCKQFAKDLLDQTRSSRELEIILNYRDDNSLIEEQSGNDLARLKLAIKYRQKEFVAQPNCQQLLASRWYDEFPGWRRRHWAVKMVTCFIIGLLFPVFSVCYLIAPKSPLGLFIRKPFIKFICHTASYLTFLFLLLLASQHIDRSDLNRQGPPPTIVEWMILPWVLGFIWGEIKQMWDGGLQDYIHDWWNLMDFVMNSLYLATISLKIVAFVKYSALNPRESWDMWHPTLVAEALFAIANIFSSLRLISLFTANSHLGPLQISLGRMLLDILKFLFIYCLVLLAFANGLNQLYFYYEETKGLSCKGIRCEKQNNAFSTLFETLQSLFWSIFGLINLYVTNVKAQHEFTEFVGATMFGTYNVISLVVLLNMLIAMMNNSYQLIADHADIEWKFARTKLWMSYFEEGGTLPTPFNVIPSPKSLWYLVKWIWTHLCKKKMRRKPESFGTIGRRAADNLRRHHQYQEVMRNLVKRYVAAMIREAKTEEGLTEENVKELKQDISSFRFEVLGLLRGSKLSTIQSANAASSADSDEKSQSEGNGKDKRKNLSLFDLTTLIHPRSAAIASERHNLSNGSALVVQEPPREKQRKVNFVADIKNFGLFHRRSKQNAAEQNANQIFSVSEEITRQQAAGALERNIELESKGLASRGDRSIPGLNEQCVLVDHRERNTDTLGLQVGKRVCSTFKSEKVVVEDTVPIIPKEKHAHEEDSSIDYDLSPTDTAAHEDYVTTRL

[2] = biological target: Eukaryotic translation initiation factor 4E (Mus musculus, UniProt P63073); assay: blockers of eIF4G binding by eIF4E – biochemical, TR-FRET, dose response (AID 855); assay type: functional;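 further: potency for disrupting eIF4E binding to eIF4GI seen as loss of FRET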
[3] = viability of uninfected HEp-2 cells – cell-based, HTS, cytotoxicity control for RSV inhibitor project, dose response (AID 2410); assay type: functional; conditions: human respiratory syncytial virus
[4] = biological target: G-protein coupled receptor 55 (Homo sapiens, UniProt Q9Y2T6); assay: selective activators of receptor GPR55 – imaging, U2OS cells, beta-arrestin-GFP redistribution, primary screen (AID 1961); assay type: functional
[5] = biological target: T2, Ubiquitin-conjugating enzyme E2 N (Homo sapiens, UniProt P61088); assay type: functional;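 further: Dose-response confirmation in a TR-FRET assay detecting UBC13-driven polyubiquitin chain formation, inhibition measured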
T2 sequence (P61088 whole entry): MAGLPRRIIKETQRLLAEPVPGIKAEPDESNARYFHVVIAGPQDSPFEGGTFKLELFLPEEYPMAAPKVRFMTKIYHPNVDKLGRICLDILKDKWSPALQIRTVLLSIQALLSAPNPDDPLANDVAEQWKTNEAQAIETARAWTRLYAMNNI

[6] = biological target: Glyceraldehyde-3-phosphate dehydrogenase (Homo sapiens, UniProt P04406)
[7] = biological target: T3, Alkaline phosphatase, tissue-nonspecific isozyme (Homo sapiens, UniProt P05186); assay: potency against alkaline phosphatase TNAP – biochemical, luminescent, dose response, SAR follow-up (AID 1056)
T3 sequence (P05186 whole entry): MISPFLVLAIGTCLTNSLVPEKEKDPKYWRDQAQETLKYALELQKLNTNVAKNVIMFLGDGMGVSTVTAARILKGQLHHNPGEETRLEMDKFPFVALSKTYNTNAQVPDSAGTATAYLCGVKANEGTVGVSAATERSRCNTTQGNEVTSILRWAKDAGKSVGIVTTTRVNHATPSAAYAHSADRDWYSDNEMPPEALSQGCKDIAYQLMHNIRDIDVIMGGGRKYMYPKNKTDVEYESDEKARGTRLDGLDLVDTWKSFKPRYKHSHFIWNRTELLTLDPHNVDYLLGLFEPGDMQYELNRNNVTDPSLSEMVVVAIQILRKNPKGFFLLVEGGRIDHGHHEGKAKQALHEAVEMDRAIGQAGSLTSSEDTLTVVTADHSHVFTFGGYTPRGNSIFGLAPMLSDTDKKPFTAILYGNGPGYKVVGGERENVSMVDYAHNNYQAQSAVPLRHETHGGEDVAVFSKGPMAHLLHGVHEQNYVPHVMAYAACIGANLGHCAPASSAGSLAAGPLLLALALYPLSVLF

[8] = biological target: Peroxisome proliferator-activated receptor gamma/Nuclear receptor coactivator 3 (Homo sapiens, UniProt P37231); assay: TR-FRET dose response biochemical High Throughput Screening assay for agonists of the steroid receptor coactivator 3 (SRC-3) recruitment by the peroxisome proliferator-activated receptor gamma (PPAR gamma): non-selective agonists. [Related pubchem assays: 1301 (Confirmation screen.), 1048 (Primary screen.)]; assay type: functional
[9] = biological target: Peroxisome proliferator-activated receptor gamma/Nuclear receptor coactivator 2 (Homo sapiens, UniProt P37231); assay: TR-FRET dose response biochemical High Throughput Screening assay for agonists of the steroid receptor coactivator 2 (SRC-2) recruitment by the peroxisome proliferator-activated receptor gamma (PPAR gamma): non-selective agonists. [Related pubchem assays: 1297, 1032 ]; assay type: functional
[10] = biological target: Peroxisome proliferator-activated receptor gamma/Nuclear receptor coactivator 1 (Homo sapiens, UniProt P37231); assay: TR-FRET dose response biochemical High Throughput Screening assay for agonists of the steroid receptor coactivator 1 (SRC-1) recruitment by the peroxisome proliferator-activated receptor gamma (PPAR gamma): non-selective agonists. [Related pubchem assays (depositor defined):AID1300, AID1808, AID504735, AID631]; assay type: protein assay
Paired box protein Pax-8 = Paired box protein Pax-8 (Homo sapiens, UniProt Q06710); assay: PAX8 transcriptional activity inhibition in RMG-I – RMG-I cells, luciferase, cherry-pick, dose response (AID 687027); assay type: functional, cell-based;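 further: luciferase reporter driven by Pax8 target thyroperoxidase promoter measured by SteadyGlo luminescence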
[11] = biological target: T4, Heat shock factor protein 1 (Mus musculus, UniProt P38532); assay: decrease of HSF1-responsive luciferase luminescence – cell-based, NIH3T3, dose retest, confirmation (AID 2382); assay type: functional;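 further: NIH3T3 fibroblasts with HSF1-driven luciferase reporter stressed by proteasome inhibitor MG132; luminescence from HSF1-driven luciferase expression after 8 hours of MG132 stress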
T4 sequence (P38532 whole entry): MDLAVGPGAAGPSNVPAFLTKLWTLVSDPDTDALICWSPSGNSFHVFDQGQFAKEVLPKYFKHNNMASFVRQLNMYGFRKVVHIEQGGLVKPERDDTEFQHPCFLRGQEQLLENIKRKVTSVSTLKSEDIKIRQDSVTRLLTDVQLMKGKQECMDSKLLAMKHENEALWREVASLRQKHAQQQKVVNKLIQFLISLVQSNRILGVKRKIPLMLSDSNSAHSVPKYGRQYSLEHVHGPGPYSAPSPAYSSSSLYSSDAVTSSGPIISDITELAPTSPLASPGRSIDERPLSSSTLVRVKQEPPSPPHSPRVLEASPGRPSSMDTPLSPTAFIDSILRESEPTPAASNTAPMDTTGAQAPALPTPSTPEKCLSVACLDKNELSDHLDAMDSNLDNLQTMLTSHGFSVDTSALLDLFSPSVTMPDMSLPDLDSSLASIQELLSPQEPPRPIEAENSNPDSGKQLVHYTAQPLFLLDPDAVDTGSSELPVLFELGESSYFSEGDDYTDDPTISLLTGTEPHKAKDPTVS

[12] = biological target: Luciferin 4-monooxygenase (Photinus pyralis, UniProt P08659); assay: inhibition of purified Photinus pyralis luciferase – biochemical, luminescence, dose response (AID 1891)
[13] = biological target: Nucleotide-binding oligomerization domain-containing protein 2 (Homo sapiens, UniProt Q9HC29); assay: inhibition of NOD2-driven NF-kB reporter – cell-based, luminescence, uHTS, HEK293 (AID 1566); assay type: functional
[14] = NIH-3T3 fibroblast cytotoxicity, dose response, cytotoxicity control, cell-based, fluorescence, Alamar Blue, secondary assay (AID 2327); assay type: functional;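 further: NIH-3T3 mouse fibroblasts cultured with fluconazole at 8 µg/mL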
Streptococcus = assay: GAS UMAA2166 growth inhibition – luminescence, BacTiterGlo, counter-screen for streptokinase expression inhibitor project, dose response (AID 1915); assay type: functional, organism-based;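 further: potency for reduction of bacterial viability or growth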
[15] = Luminescence Cell-Based Dose Response HTS to Identify Inhibitors of 5'UTR Stem-Loop Driven Prion Protein mRNA Translation in H4 Neuroglioblastoma Cells. [Related pubchem assays: 1827 (Project Summary), 1813 (Primary HTS)]; assay type: functional
[16] = luciferase reporter signal suppression in cells – H4 neuroglioma cells, luminescence, dose response (AID 1990); assay type: functional, cell-based
Streptokinase A = biological target: T5, Streptokinase A (Streptococcus pyogenes serotype M1, UniProt P10520); assay: viability-normalized secreted streptokinase activity reduction – plasminogen activation absorbance, OD405, dose response (AID 1914); assay type: functional, Streptococcus pyogenes M1 GAS;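 further: secreted streptokinase activity via plasminogen activation per viability signal from cell pellet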
T5 sequence (P10520 whole entry): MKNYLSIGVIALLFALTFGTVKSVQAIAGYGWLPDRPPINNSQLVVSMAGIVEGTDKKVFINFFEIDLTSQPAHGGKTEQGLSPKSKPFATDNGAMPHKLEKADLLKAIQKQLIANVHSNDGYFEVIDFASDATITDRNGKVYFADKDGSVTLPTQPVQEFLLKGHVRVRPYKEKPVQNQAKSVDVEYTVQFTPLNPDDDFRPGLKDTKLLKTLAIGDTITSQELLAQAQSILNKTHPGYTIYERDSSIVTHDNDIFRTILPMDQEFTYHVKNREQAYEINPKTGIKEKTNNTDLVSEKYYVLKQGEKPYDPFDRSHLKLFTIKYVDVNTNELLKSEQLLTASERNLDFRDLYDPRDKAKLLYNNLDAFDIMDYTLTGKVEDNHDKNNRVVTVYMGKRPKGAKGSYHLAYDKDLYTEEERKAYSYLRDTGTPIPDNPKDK

[17] = alpha-synuclein stem-loop luciferase translation blockers – H4 neuroglioma cells, luminescence, confirmation (AID 1988); assay type: functional, cell-based
INS1 = assay: INS-1E survival protection against cytokine death – cell-based, luminescence, retest, dose response (AID 449756); assay type: functional; conditions: Rattus norvegicus;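 further: cell death triggered by IL-1 beta plus TNF-alpha plus IFN-gamma mixture; protective hits raise ATP signal compared with cytokine alone wells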
Nonstructural protein 1 = Nonstructural protein 1 (Influenza A virus, UniProt Q194T2); assay type: functional, Influenza A virus (A/California/07/2009(H1N1))
[18] = fluconazole-exposed Candida albicans growth modulators – fluorescence, retest, confirmation (AID 2467); assay type: functional, cell-based
[19] = system: Streptococcus sp. 'group A'; assay: Streptococcus pyogenes SK(-)GAS viability under kanamycin – luminescence, BacTiterGlo, confirmation, counter-screen for streptokinase expression inhibitor project, dose response (AID 1900); assay type: functional, organism-based

## Oc1[nH]nc(C(F)(F)F)c1/C=N/Cc1ccccc1Cl
Troponin, cardiac muscle
  EC50: > 71.4 µM (inactive)

## N=c1sccn1CC(=O)Nc1ccccc1Oc1ccccc1
[1]
  EC50: 5.96 µM (active)

## Cc1ccc2cc(CN(CCCN3CCOCC3)C(c3nnnn3Cc3ccco3)C(C)C)c(O)nc2c1C (stereo not given)
[1]
  EC50: 0.473 µM (active)

## COc1ccccc1NS(=O)(=O)c1ccc(NN=C2CCCC2)c([N+](=O)[O-])c1
[2]
  IC50: > 64 µM (inactive)

## Cc1ccc(Nc2cc(C)nc3ccc(C)cc23)cc1
[1]
  EC50: 1.5 µM (active)
[3]
  CC50: 45.9 µM (active)

## CC(C)C[C@@H](CSc1ccccc1)N1CCN(CCc2ccccc2)CCC1=O
[4]
  EC50: 6.56 µM (active)

## CCN(CC)C(=O)CC(c1ccc(N(C)C)cc1)c1c(OC)cc(OC)c2c(-c3ccccc3)cc(=O)oc12 (stereo not given)
[4]
  EC50: 2.74 µM (active)

## COc1cc(CNC2CCCC2)c(Br)cc1OC1CCCC1
[1]
  EC50: 0.0373 µM (active)

## Sc1nnc(-c2ccco2)n1/N=C/c1ccc(Cl)cc1Cl
[2]
  IC50: > 64 µM (inactive)

## Cc1ccc(-c2csc(NC(=O)CSc3nc4ccccc4c(=O)n3CCCN(C)C)n2)cc1
[5]
  IC50: > 20 µM (inactive)
[2]
  IC50: 50 µM (inactive)

## Oc1c(Cl)cc(Cl)cc1/C=N/c1ccccc1N1CCCC1
[4]
  EC50: > 32 µM (inactive)
[3]
  CC50: 20.9 µM (active)

## S=c1[nH]nc(-c2ccc(Cl)cc2)n1-c1ccc2c(c1)OCCO2
Troponin, cardiac muscle
  EC50: > 71.5 µM (inactive)

## O=S(=O)(Nc1cccnc1)c1ccccc1OC(F)(F)F
[6]
  IC50: > 100 µM (not active)
[7]
  IC50: > 100 µM (inactive)

## COC(=O)c1sc(N2C(=O)C(O)=C(C(=O)c3ccc(C)o3)C2c2ccc(F)cc2)nc1C (stereo not given)
[8]
  EC50: > 79.4 µM (not active)
Troponin, cardiac muscle
  EC50: > 71.4 µM (inactive)
[9]
  EC50: 32.3 µM (not active)
[10]
  EC50: 41.9 µM (inactive)

## COc1ccc(N(Cc2cc3cc(OC)ccc3[nH]c2=O)S(=O)(=O)c2ccc(NC(C)=O)cc2)cc1
Paired box protein Pax-8
  AC50: 1.29 µM (active)
[11]
  EC50: 0.309 µM (active)
[12]
  EC50: > 112 µM (not active)
[13]
  EC50: > 20 µM (inactive)

## COc1cccc(/C=N/Nc2cc(N3CCOCC3)ncn2)c1O
[14]
  EC50: > 150 µM (inactive)
Streptococcus
  EC50: 9.45 µM (active)
[15]
  EC50: 4.01 µM (active)
[16]
  EC50: 8.79 µM (active)
Streptokinase A
  EC50: > 150 µM (not active)
[17]
  EC50: 4.5 µM (active)
INS1
  AC50: 3.04 µM (active)
Nonstructural protein 1
  IC50: 5.96 µM (active)
[18]
  EC50: 5.78 µM (active)
[19]
  EC50: 9.07 µM (active)
